This is an account of results in patent publication US9049865B2, “Use of fungicidal active substances for controlling mycoses on plants of the palm family” (Bayer Intellectual Property GmbH, priority 2010, dated 2015).

Values after ≈ are worked out from the molar mass of the structure shown. Values joined by “and” are separate entries in the source; they are usually repeats but may differ in a detail not shown here. Identical values can stand only once. Like-named read-outs stand apart in the source and are kept apart here.

In this assay the test system is Ganoderma boninense. The assay can be described thus: Microtiter plate growth test of Ganoderma boninense mycelium in potato-dextrose broth, absorption by photometer. Particulars: for EC50: Ganoderma boninense; for efficacy in controlling basal stem rot (BSR) disease, in words: verbal assessment of the EC50 data. Format: cell-based. On the procedure: • 1. Culturing of the isolates on potato-dextrose agar (PDA) • 2. Preparation of a liquid potato-dextrose broth (PDB) as inoculum • For the development of the mycelium, 10 small pieces of the mycelium were transferred into 200 ml of the liquid potato-dextrose broth (PDB) and cultured for 7 days in a greenhouse cabinet at 26° C. • The mycelium was isolated, transferred into 200 ml of fresh liquid potato-dextrose broth supplemented with 25 mg/l enrofloxacin and comminuted using a homogenizer (5 seconds, Ultra Turrax). Thereafter this mycelial suspension was adjusted to two mycelial densities: • Inoculum A: “High mycelial density” • Homogenized mycelial suspension made up to 400 ml with PDB+enrofloxacin • Inoculum B: “Low mycelial density” • 100 ml of inoculum A made up to 400 ml with PDB+enrofloxacin • 3. Microtiter plate test: • Concentration range from 0.0-0.0064-0.032-0.16-4-20 to 100 ppm for each fungicide (active component) • Fungicide and inoculum were distributed using an automatic dispenser • 4. Evaluation (growth determination): • This is carried out every 2 days (1st evaluation after 4 days) by measuring the absorption over 13 days, using a photometer. II. Results
EC50 & (MEC50): Fungicide concentration at which the fungal growth is reduced by 50%: […]

Where [1] appears, read: G. boninense, high mycelial density, after 6 days, single determinations.
The mark [2] stands for this setting: G. boninense, low mycelial density, after 13 days, single determinations.
[3] abbreviates: 144 h, G. boninense, high mycelial density, after 6 days, single determinations, read-out: EC50 data.
[4] abbreviates: 144 h, G. boninense, high mycelial density, after 6 days, read-out: MEC50s (mean EC50 data).
The mark [5] stands for this setting: 144 h, G. boninense, low mycelial density, after 6 days, read-out: MEC50s (mean EC50 data).
Setting [6] is: 312 h, G. boninense, high mycelial density, after 13 days, read-out: MEC50s (mean EC50 data).
Setting [7] is: 312 h, G. boninense, low mycelial density, after 13 days, single determinations, read-out: EC50 data.
[8] abbreviates: 312 h, G. boninense, low mycelial density, after 13 days, read-out: MEC50s (mean EC50 data).
Where [9] appears, read: G. boninense, high mycelial density, after 13 days, single determinations.
The mark [10] stands for this setting: G. boninense, low mycelial density, after 6 days, single determinations.
Where [11] appears, read: 144 h, G. boninense, low mycelial density, after 6 days, single determinations, read-out: EC50 data.
[12] abbreviates: 312 h, G. boninense, high mycelial density, after 13 days, single determinations, read-out: EC50 data.

For `CC(C)(C)C(O)C(Oc1ccc(-c2ccccc2)cc1)n1cncn1` (stereo not drawn) [Bitertanol], the “efficacy in controlling basal stem rot (BSR) disease, in words” value (shortened to “efficacy in controlling basal stem rot”) is reported as “similarly effective”. Moreover, under setting [1], the EC50 data was 0.0518 mg/L and 0.0614 mg/L and 0.058 mg/L and 0.0542 mg/L and 0.0679 mg/L. Besides, the EC50 data under setting [2] is 0.1355 mg/L and 0.1360 mg/L and 0.1146 mg/L and 0.1235 mg/L and 0.1014 mg/L. In addition, under setting [3], the EC50 worked out at 0.0801 µg/mL (≈ 0.237 µM). For the same compound, the 50% effective concentration (EC50) under setting [4] was 0.062 µg/mL (≈ 0.184 µM). Moreover, the half-maximal effective concentration (EC50) under setting [5] stood at 0.061 µg/mL (≈ 0.181 µM). Moreover, the EC50 under setting [6] came out at 0.054 µg/mL (≈ 0.16 µM). The concentration giving a half-maximal response (EC50) under setting [7] stood at 0.118 µg/mL (≈ 0.35 µM). In addition, the EC50 under setting [8] is 0.121 µg/mL (≈ 0.359 µM).

With `Cn1cc(C(=O)Nc2ccc(F)cc2-c2ccc(Cl)c(Cl)c2)c(C(F)F)n1` [Bixafen, N-(3′,4′-dichloro-5-fluoro-1,1′-biphenyl-2-yl)-3-(difluoromethyl)-1-methyl-1H-pyrazole-4-carboxamide], the 50% effective concentration (EC50) came out at 0.07 µg/mL (≈ 0.169 µM) under setting [4], 0.027 µg/mL (≈ 0.0652 µM) under setting [5], 0.096 µg/mL (≈ 0.232 µM) under setting [6] and 0.096 µg/mL (≈ 0.232 µM) under setting [8].

With `CO/N=C(/C1=NOCCO1)c1ccccc1Oc1ncnc(Oc2ccccc2Cl)c1F` [Fluoxastrobin], the “efficacy in controlling basal stem rot” value is reported as “less effective”. Further, the EC50 under setting [5] is 0.036 µg/mL (≈ 0.0785 µM). The EC50 under setting [8] worked out at 0.158 µg/mL (≈ 0.344 µM).

As to `O=c1c2cc(F)ccc2nc(-n2cncn2)n1-c1ccc(Cl)cc1Cl` [Fluquinconazole], the EC50 data under setting [9] was 0.0450 mg/L and 0.0443 mg/L and 0.0458 mg/L and 0.0352 mg/L and 0.0386 mg/L; the EC50 data under setting [10] is 0.0178 mg/L and 0.0228 mg/L and 0.0239 mg/L and 0.0224 mg/L and 0.022 mg/L; the EC50 data under setting [2] is 0.0532 mg/L and 0.0915 mg/L and 0.0656 mg/L and 0.0577 mg/L and 0.075 mg/L. Moreover, the EC50 by setting is: under setting [4], 0.034 µg/mL (≈ 0.0904 µM); under setting [11], 0.0308 µg/mL (≈ 0.0819 µM); under setting [5], 0.023 µg/mL (≈ 0.0611 µM); under setting [12], 0.0393 µg/mL (≈ 0.104 µM); under setting [6], 0.041 µg/mL (≈ 0.109 µM); under setting [7], 0.0591 µg/mL (≈ 0.157 µM). Moreover, under setting [8], the EC50 turned out to be 0.066 µg/mL (≈ 0.175 µM).

Take `Cc1nn(C)c(F)c1C(=O)Nc1ccccc1C(C)CC(C)C` (stereo not drawn) [Penflufen, N-[2-(1,3-dimethylbutyl)phenyl]-5-fluoro-1,3-dimethyl-1H-pyrazole-4-carboxamide]: the EC50 data by setting is: under setting [1], 0.0098 mg/L and 0.0087 mg/L; under setting [10], 0.0065 mg/L (≈ 0.0205 µM). Besides, the EC50 runs as follows: under setting [3], 0.0076 µg/mL (≈ 0.0239 µM); under setting [4], 0.008 µg/mL (≈ 0.0252 µM); under setting [11], 0.0064 µg/mL (≈ 0.0202 µM); under setting [5], 0.006 µg/mL (≈ 0.0189 µM); under setting [6], 0.022 µg/mL (≈ 0.0693 µM); under setting [8], 0.015 µg/mL (≈ 0.0473 µM).

Turning to `CCCN(CCOc1c(Cl)cc(Cl)cc1Cl)C(=O)n1ccnc1` [Prochloraz], the EC50 data under setting [10] is 0.3566 mg/L and 0.5803 mg/L and 0.5515 mg/L and 0.6018 mg/L and 0.5704 mg/L; the EC50 data under setting [2] was 0.6978 mg/L and 1.0994 mg/L and 0.7737 mg/L and 0.8261 mg/L and 1.1128 mg/L. Further, the EC50 (144 h, read-out: EC50 data, G. boninense, low mycelial density, after 6 days, single determinations) amounted to 0.497 µg/mL (≈ 1.32 µM); the EC50 (144 h, read-out: MEC50s (mean EC50 data), G. boninense, low mycelial density, after 6 days) worked out at 0.519 µg/mL (≈ 1.38 µM); the EC50 (312 h, read-out: EC50 data, G. boninense, low mycelial density, after 13 days, single determinations) is 0.94 µg/mL (≈ 2.5 µM); the EC50 (312 h, read-out: MEC50s (mean EC50 data), G. boninense, low mycelial density, after 13 days) worked out at 0.895 µg/mL (≈ 2.38 µM).

In the case of `OC(Cc1ccccc1Cl)(Cn1nc[nH]c1=S)C1(Cl)CC1` (stereo not drawn) [Prothioconazole], the “efficacy in controlling basal stem rot” value was “best activity”. Also, the EC50 data under setting [1] is 0.0069 mg/L and 0.0087 mg/L and 0.0117 mg/L and 0.0073 mg/L. Under setting [9], the EC50 data was 0.0084 mg/L and 0.0068 mg/L. Further, the EC50 under setting [3] is 0.0064 µg/mL (≈ 0.0186 µM). Moreover, the EC50 under setting [4] is 0.008 µg/mL (≈ 0.0232 µM). Further, the EC50 under setting [5] stood at 0.012 µg/mL (≈ 0.0349 µM). Moreover, under setting [12], the EC50 was determined as 0.0064 µg/mL (≈ 0.0186 µM). In addition, the EC50 under setting [6] worked out at 0.009 µg/mL (≈ 0.0261 µM). For the same compound, the EC50 under setting [8] was 0.014 µg/mL (≈ 0.0407 µM).

Turning to `CC(C)(C)C(O)(CCc1ccc(Cl)cc1)Cn1cncn1` (stereo not drawn) [Tebuconazole], the “efficacy in controlling basal stem rot” value is “best activity”. Further, the EC50 data under setting [2] was 0.0065 mg/L and 0.0067 mg/L and 0.0072 mg/L. In addition, the EC50 under setting [3] stood at 0.0064 µg/mL (≈ 0.0208 µM). Moreover, the 50% effective concentration (EC50) under setting [4] worked out at 0.006 µg/mL (≈ 0.0195 µM). Further, the EC50 under setting [11] was 0.0064 µg/mL (≈ 0.0208 µM). The 50% effective concentration (EC50) under setting [5] was 0.006 µg/mL (≈ 0.0195 µM). Besides, the EC50 under setting [6] was determined as 0.011 µg/mL (≈ 0.0357 µM). Besides, under setting [7], the EC50 was determined as 0.0086 µg/mL (≈ 0.0279 µM). The EC50 under setting [8] is 0.007 µg/mL (≈ 0.0227 µM).

`CC(C)(C)C(O)C(Oc1ccc(Cl)cc1)n1cncn1` (stereo not drawn) [Triadimenol]: the “efficacy in controlling basal stem rot” value is reported as “similarly effective”. Moreover, the EC50 data under setting [1] was 0.0446 mg/L and 0.0475 mg/L and 0.0712 mg/L and 0.0434 mg/L and 0.0767 mg/L. Besides, the EC50 data under setting [10] was 0.08 mg/L and 0.1062 mg/L and 0.1077 mg/L and 0.1076 mg/L and 0.0638 mg/L. For the same compound, the EC50 data under setting [2] is 0.0963 mg/L and 0.0723 mg/L and 0.1064 mg/L and 0.1074 mg/L. Besides, under setting [3], the EC50 was 0.0386 µg/mL (≈ 0.131 µM). In addition, the EC50 under setting [4] is 0.052 µg/mL (≈ 0.176 µM). Also, the EC50 under setting [11] was 0.106 µg/mL (≈ 0.359 µM). Under setting [5], the EC50 was found to be 0.093 µg/mL (≈ 0.314 µM). Also, the EC50 under setting [6] was determined as 0.06 µg/mL (≈ 0.203 µM). Also, the EC50 under setting [7] is 0.103 µg/mL (≈ 0.349 µM). In addition, the EC50 under setting [8] was 0.098 µg/mL (≈ 0.331 µM).

As to `CON=C(C(=O)OC)c1ccccc1CON=C(C)c1cccc(C(F)(F)F)c1` [Trifloxystrobin], the “efficacy in controlling basal stem rot” value is recorded as “outstanding efficacy”. Further, the EC50 data under setting [9] was 0.0119 mg/L and 0.0081 mg/L and 0.0115 mg/L. Also, under setting [3], the EC50 was 0.0064 µg/mL (≈ 0.0157 µM). Besides, the EC50 under setting [4] was found to be 0.006 µg/mL (≈ 0.0147 µM). Under setting [11], the EC50 came out at 0.0064 µg/mL (≈ 0.0157 µM). The EC50 under setting [5] was found to be 0.006 µg/mL (≈ 0.0147 µM). Further, the EC50 under setting [12] was 0.0064 µg/mL (≈ 0.0157 µM). In addition, the EC50 under setting [6] came out at 0.01 µg/mL (≈ 0.0245 µM). Under setting [8], the 50% effective concentration (EC50) is 0.02 µg/mL (≈ 0.049 µM).

In general, EC50 refers to the concentration that produces a half-maximal response.
